# Test system: 276233-004-R-J1-PDC complex spheroid viability
# Assay: Anticancer human tumor 276233-004-R-J1-PDC patient-derived colon adenocarcinoma cell line growth inhibition [GQUAD]
# Details: for IC50: curve of first compound; for viability, T/C: stronger effect = lower value
# How it was run: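 Multi-cell-type spheroids of tumor cells with HUVEC and mesenchymal stem cells, treated with drug combinations. Concentrations descend in half-log steps from near clinical Cmax, or from 10 microM where Cmax is unknown; viability read-out.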
# [1] = second compound 0.0316 µM, first compound 0.0316 µM
# [2] = second compound 0.0316 µM, first compound 0.1 µM
# [3] = second compound 0.0316 µM, first compound 0.316 µM
# [4] = second compound 0.0316 µM, first compound 1 µM
# [5] = second compound 0.0316 µM, first compound 3.16 µM
# [6] = second compound 0.0316 µM, first compound 10 µM
# [7] = second compound 0.1 µM, first compound 0.0316 µM
# [8] = second compound 0.1 µM, first compound 0.1 µM
# [9] = second compound 0.1 µM, first compound 0.316 µM
# [10] = second compound 0.1 µM, first compound 1 µM
# [11] = second compound 0.1 µM, first compound 3.16 µM
# [12] = second compound 0.1 µM, first compound 10 µM
# [13] = second compound 0.316 µM, first compound 0.0316 µM
# [14] = second compound 0.316 µM, first compound 0.1 µM
# [15] = second compound 0.316 µM, first compound 0.316 µM
# [16] = second compound 0.316 µM, first compound 1 µM
# [17] = second compound 0.316 µM, first compound 3.16 µM
# [18] = second compound 0.316 µM, first compound 10 µM
# [19] = second compound 1 µM, first compound 0.0316 µM
# [20] = second compound 1 µM, first compound 0.1 µM
# [21] = second compound 1 µM, first compound 0.316 µM
# [22] = second compound 1 µM, first compound 1 µM
# [23] = second compound 1 µM, first compound 3.16 µM
# [24] = second compound 1 µM, first compound 10 µM
# [25] = second compound 3.16 µM, first compound 0.0316 µM
# [26] = second compound 3.16 µM, first compound 0.1 µM
# [27] = second compound 3.16 µM, first compound 0.316 µM
# [28] = second compound 3.16 µM, first compound 1 µM
# [29] = second compound 3.16 µM, first compound 3.16 µM
# [30] = second compound 3.16 µM, first compound 10 µM
# [31] = second compound 10 µM, first compound 0.0316 µM
# [32] = second compound 10 µM, first compound 0.1 µM
# [33] = second compound 10 µM, first compound 0.316 µM
# [34] = second compound 10 µM, first compound 1 µM
# [35] = second compound 10 µM, first compound 3.16 µM
# [36] = second compound 10 µM, first compound 10 µM
# 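Note: spheroids exposed to drugs for seven days.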
# 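Throughout, for viability, T/C: 100% = DMSO vehicle control viability.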
structure (smiles),measurement,setting,value
CCCS(=O)(=O)Nc1ccc(F)c(C(=O)c2c[nH]c3ncc(-c4ccc(Cl)cc4)cc23)c1F + CN(C)c1ccc(Nc2c3ccc(NC(=O)CCN4CCCC4)cc3nc3cc(NC(=O)CCN4CCCC4)ccc23)cc1,IC50,second compound 0.0316 µM,> 10000 nM
same,IC50,second compound 0.1 µM,> 10000 nM
same,IC50,second compound 0.316 µM,> 10000 nM
same,IC50,second compound 1 µM,> 10000 nM
same,IC50,second compound 3.16 µM,> 10000 nM
same,IC50,second compound 10 µM,< 31.6 nM
same,"viability, T/C",[1],81.6%
same,"viability, T/C",[2],83.2%
same,"viability, T/C",[3],78%
same,"viability, T/C",[4],102%
same,"viability, T/C",[5],91%
same,"viability, T/C",[6],65.2%
same,"viability, T/C",[7],76.4%
same,"viability, T/C",[8],80%
same,"viability, T/C",[9],78.2%
same,"viability, T/C",[10],77.1%
same,"viability, T/C",[11],71%
same,"viability, T/C",[12],70.8%
same,"viability, T/C",[13],72.9%
same,"viability, T/C",[14],64.3%
same,"viability, T/C",[15],68.8%
same,"viability, T/C",[16],63%
same,"viability, T/C",[17],65.3%
same,"viability, T/C",[18],55.1%
same,"viability, T/C",[19],60.2%
same,"viability, T/C",[20],58.2%
same,"viability, T/C",[21],56.8%
same,"viability, T/C",[22],65.2%
same,"viability, T/C",[23],53.3%
same,"viability, T/C",[24],63.4%
same,"viability, T/C",[25],62.1%
same,"viability, T/C",[26],56.6%
same,"viability, T/C",[27],50.8%
same,"viability, T/C",[28],46.1%
same,"viability, T/C",[29],59.1%
same,"viability, T/C",[30],55.6%
same,"viability, T/C",[31],33.9%
same,"viability, T/C",[32],45.9%
same,"viability, T/C",[33],40.4%
same,"viability, T/C",[34],38.2%
same,"viability, T/C",[35],39.3%
same,"viability, T/C",[36],56.6%
Cc1[nH]c2ccccc2c1CCNCc1ccc(/C=C/C(=O)NO)cc1 + CN(C)c1ccc(Nc2c3ccc(NC(=O)CCN4CCCC4)cc3nc3cc(NC(=O)CCN4CCCC4)ccc23)cc1,IC50,second compound 0.0316 µM,178 nM
same,IC50,second compound 0.1 µM,169 nM
same,IC50,second compound 0.316 µM,166 nM
same,IC50,second compound 1 µM,47.7 nM
same,IC50,second compound 3.16 µM,< 0.999 nM
same,IC50,second compound 10 µM,< 0.999 nM
same,"viability, T/C","second compound 0.0316 µM, first compound 0.000999 µM",99.1%
same,"viability, T/C","second compound 0.0316 µM, first compound 0.00316 µM",79%
same,"viability, T/C","second compound 0.0316 µM, first compound 0.00999 µM",80.2%
same,"viability, T/C",[1],84%
same,"viability, T/C","second compound 0.0316 µM, first compound 0.0999 µM",77.5%
same,"viability, T/C",[3],23.2%
same,"viability, T/C","second compound 0.1 µM, first compound 0.000999 µM",87.7%
same,"viability, T/C","second compound 0.1 µM, first compound 0.00316 µM",90.7%
same,"viability, T/C","second compound 0.1 µM, first compound 0.00999 µM",60.1%
same,"viability, T/C",[7],71.3%
same,"viability, T/C","second compound 0.1 µM, first compound 0.0999 µM",79%
same,"viability, T/C",[9],17.2%
same,"viability, T/C","second compound 0.316 µM, first compound 0.000999 µM",57.8%
same,"viability, T/C","second compound 0.316 µM, first compound 0.00316 µM",78.7%
same,"viability, T/C","second compound 0.316 µM, first compound 0.00999 µM",59.6%
same,"viability, T/C",[13],50%
same,"viability, T/C","second compound 0.316 µM, first compound 0.0999 µM",85%
same,"viability, T/C",[15],29.6%
same,"viability, T/C","second compound 1 µM, first compound 0.000999 µM",58.2%
same,"viability, T/C","second compound 1 µM, first compound 0.00316 µM",54.2%
same,"viability, T/C","second compound 1 µM, first compound 0.00999 µM",47.9%
same,"viability, T/C",[19],64.3%
same,"viability, T/C","second compound 1 µM, first compound 0.0999 µM",38.9%
same,"viability, T/C",[21],21.8%
same,"viability, T/C","second compound 3.16 µM, first compound 0.000999 µM",45.3%
same,"viability, T/C","second compound 3.16 µM, first compound 0.00316 µM",47.9%
same,"viability, T/C","second compound 3.16 µM, first compound 0.00999 µM",42.6%
same,"viability, T/C",[25],40.3%
same,"viability, T/C","second compound 3.16 µM, first compound 0.0999 µM",28.1%
same,"viability, T/C",[27],8.05%
same,"viability, T/C","second compound 10 µM, first compound 0.000999 µM",29.1%
same,"viability, T/C","second compound 10 µM, first compound 0.00316 µM",39.6%
same,"viability, T/C","second compound 10 µM, first compound 0.00999 µM",38.8%
same,"viability, T/C",[31],29.3%
same,"viability, T/C","second compound 10 µM, first compound 0.0999 µM",34%
same,"viability, T/C",[33],3.25%
O=C(NO)c1cnc(N2CCN(S(=O)(=O)c3ccc4ccccc4c3)CC2)nc1 + CN(C)c1ccc(Nc2c3ccc(NC(=O)CCN4CCCC4)cc3nc3cc(NC(=O)CCN4CCCC4)ccc23)cc1,IC50,second compound 0.0316 µM,564 nM
same,IC50,second compound 0.1 µM,382 nM
same,IC50,second compound 0.316 µM,291 nM
same,IC50,second compound 1 µM,385 nM
same,IC50,second compound 3.16 µM,207 nM
same,IC50,second compound 10 µM,< 31.6 nM
same,"viability, T/C",[1],97.6%
same,"viability, T/C",[2],110%
same,"viability, T/C",[3],93.9%
same,"viability, T/C",[4],6.51%
same,"viability, T/C",[5],1.16%
same,"viability, T/C",[6],0.86%
same,"viability, T/C",[7],77.9%
same,"viability, T/C",[8],138%
same,"viability, T/C",[9],59.3%
same,"viability, T/C",[10],5.11%
same,"viability, T/C",[11],0.78%
same,"viability, T/C",[12],1.12%
same,"viability, T/C",[13],61%
same,"viability, T/C",[14],90.4%
same,"viability, T/C",[15],48%
same,"viability, T/C",[16],4.4%
same,"viability, T/C",[17],1.75%
same,"viability, T/C",[18],1.22%
same,"viability, T/C",[19],70%
same,"viability, T/C",[20],85.4%
same,"viability, T/C",[21],59.9%
same,"viability, T/C",[22],1.33%
same,"viability, T/C",[23],1.89%
same,"viability, T/C",[24],2.09%
same,"viability, T/C",[25],74.2%
same,"viability, T/C",[26],68.7%
same,"viability, T/C",[27],38.8%
same,"viability, T/C",[28],3.01%
same,"viability, T/C",[29],1.99%
same,"viability, T/C",[30],0.85%
same,"viability, T/C",[31],35.5%
same,"viability, T/C",[32],45.6%
same,"viability, T/C",[33],25.5%
same,"viability, T/C",[34],5.18%
same,"viability, T/C",[35],1.04%
same,"viability, T/C",[36],1.85%
